Structures can show the parent of a compound that is named as a salt. One block for each compound: values may come before it.
Experiments:
[1] = Test 1: transformation of 3-indolepyruvic acid into kynurenic acid in vitro, within a non enzymatic system; format: physicochemical; details: from 2 mg, HCl 0,1 M, O2 and light
Description: When 3-indole pyruvic acid or a derivative thereof of formula 1 is incubated in a slightly acid solution (HCl 0,1 M), in the presence of oxidising agents (O2) and light, in time the formation of small amounts of kynurenic acid is observed. Particularly starting from 2 mg 3-indolepyruvic acid, 0,5 micrograms are obtained after 2 hours and 0,7 micrograms after 4 hours.

Kidney homogenate = assay: Test 2: transformation into kynurenic acid in tissue homogenates (kidney); format: in vitro ADME, rats
Description: (§1) Male rats fasting for 16 hours were sacrificed and their organs were taken and homogenized in 5 volumes of 0,05 M phosphate buffer pH 7,4+0,14 M KCl.
(§2) Small amounts of homogenate (0,8 ml) were additioned with various amounts of 3-indolepyruvic acid or the derivatives thereof, dissolved into a buffer solution, and with a system for the production of free radicals, consisting of ascorbic acid (final 10^-5 M), FeCl3 (final 10^-6 M) and H2 O2 (final 10^-4 M). It was stirred at 37° C., then the reaction was blocked.

Brain homogenate = assay: Test 2: transformation into kynurenic acid in tissue homogenates (brain); format: in vitro ADME, rats; details: for Amount of kynurenic acid formed: brain homogenate
Description: as §1, §2

kynurenic acid [2] = assay: Test 3: effect on the content of kynurenic acid after administration of IPA in rat; format: in vivo; details: for increase in the levels of kynurenic acid in the tissues (in words): rat, in vivo
From the text: (§3) For the measurement of such levels after administration of 3-indolepyruvic acid or a derivative thereof, a system was set up based on ultraviolet detection of the compounds separated by high pressure liquid chromatography.
(§4) Briefly, after sacrific of the animal, some of the principal organs were taken and homogenized with alkaline ethanol. Proteins and cell remains were removed by centrifugation, whilst the over natant was adsorbed on Bio-Rad AG 1×8 resin. After washing with water it was eluted with formic acid. It was then passed on Bio-Rad AG 50W-×8 resin, eluted with 3% ammonia, dried and retaken with a small amount of water.
(§5) The sample thus obtained was injected into a Waters apparatus for high pressure liquid chromatography, using a C18 10 micron column and eluting with 0,02 m citric acid containing 10% of methanol. The kynurenic acid levels were extrapolated by the calibration line of the acid and reading at 234 nm.
Male rats were treated with saline solution (controls) or with various doses of IPA, which was injected 3 hours before sacrifice. Each lot comprised 10 animals.
The results are reported in picomoles/g of tissue (or ml of blood)±standard error.

[3] = system: tryptophan and kynurenic acid in the brain of rats; details: rat, in vivo; for KYN/TRP × 10^3: ip, 250 mg/kg
From the text: as §3, §4, §5
Male rats were treated with saline solution (controls), IPA or tryptophan i.p. one hour before sacrifice. Each lot was of six animals.
The reported values are in picomoles/g for kynurenic acid and picomoles/mg for tryptophan.

kynurenic acid [4] = assay: Test 5: time course of the kynurenic acid levels after administration of IPA; format: in vivo, rats; details: 250 mg/Kg i.p.; for kynurenic acid level, Brain / kynurenic acid level, Heart / kynurenic acid level, Kidney / kynurenic acid level, Liver: ± standard error
From the text: as §3, §4, §5
Male rats, in lots of five animals each, were treated i.p. with 250 mg/Kg IPA and were sacrificed at different times, evaluating the levels of kynurenic acid present in various organs.
The results are reported in picomoles/g±standard error.

[5] = system: audiogenic convulsions in DBA2 mice; assay: Test 6: audiogenic convulsions in DBA2 mice; format: in vivo; details: for Animals with convulsions, % / Animals with convulsions: one hour before the test; for Animals with convulsions: number/total; for protective action against tonic convulsions induced by sound stimulations (in words): DBA2 mice
Description: To evaluate whether an increase in kynurenic acid in the brain after administration of IPA could have a protective action on neurons stressed by excitatory aminoacids, the experimental pattern of inducing convulsions in a particular strain of mice (DBA2) by selected sound stimulations was followed. […] The substances were injected intravenously one hour before the test. Then the number of animals showing tonic convulsions was measured.

NMDA induced convulsions [6] = assay: Test 7: NMDA induced convulsions; format: in vivo, Mice of Albino Swiss strain
Description: Mice of Albino Swiss strain were treated with saline (controls) or with IPA (1 g/Kg i.p.) one hour before receiving a toxic dose of NMDA (154 mg/Kg i.p.).

Stability = format: physicochemical
kynurenic acid [7] = assay: Test 3: effect on the content of kynurenic acid after administration of IPA in rat; format: in vivo; details: 3 hours, ± standard error
Water solubility = format: physicochemical
NMDA induced convulsions [8] = details: cited from earlier work
[9] = system: audiogenic convulsions in DBA2 mice; details: known effect of kynurenic acid; cited from earlier work
excitatory aminoacids = details: cited from earlier work; for agonism of excitatory aminoacids (in words): central nervous system of mammals
[10] = 100 mg/Kg i.p., 3 hours, ± standard error
[11] = 250 mg.Kg i.p., 3 hours, ± standard error
[12] = 500 mg.Kg i.p., 3 hours, ± standard error
[13] = 1 g/Kg i.p. one hour before NMDA 154 mg/Kg i.p., number/total

SMILES: O=C(O)C(=O)Cc1c[nH]c2ccccc12 [3-indolepyruvic acid]
- kynurenic acid obtained ([1]; after 2 hours): 0,5 micrograms
- kynurenic acid obtained ([1]; after 4 hours): 0,7 micrograms
- Amount of kynurenic acid formed (Kidney homogenate; final 0.8 mg, 30'): 160 ng
- Amount of kynurenic acid formed (Kidney homogenate; final 0.8 mg, 60'): 190 ng
- Amount of kynurenic acid formed (Kidney homogenate; final 0.8 mg, 120'): 208 ng
- Amount of kynurenic acid formed (Kidney homogenate; final 1.6 mg, 30'): 232 ng
- Amount of kynurenic acid formed (Kidney homogenate; final 1.6 mg, 60'): 280 ng
- Amount of kynurenic acid formed (Kidney homogenate; final 1.6 mg, 120'): 315 ng
- Amount of kynurenic acid formed (Kidney homogenate; final 4 mg, 30'): 185 ng
- Amount of kynurenic acid formed (Kidney homogenate; final 4 mg, 60'): 221 ng
- Amount of kynurenic acid formed (Kidney homogenate; final 4 mg, 120'): 270 ng
- transformation into kynurenic acid in brain homogenate (in words) (Brain homogenate): able to transform into kynurenic acid in the brain
- Amount of kynurenic acid formed (Brain homogenate; 1.6 mg, 30'): 165 ng
- Amount of kynurenic acid formed (Brain homogenate; 1.6 mg, 60'): 280 ng
- Amount of kynurenic acid formed (Brain homogenate; 1.6 mg, 120'): 380 ng
- kynurenic acid content, Blood (kynurenic acid [2]; [10]): 62 ± 3 picomoles/ml of blood
- kynurenic acid content, Brain (kynurenic acid [2]; [10]): 24 ± 1 picomoles/g of tissue
- kynurenic acid content, Liver (kynurenic acid [2]; [10]): 240 ± 20 picomoles/g of tissue
- kynurenic acid content, Blood (kynurenic acid [2]; [11]): 164 ± 10 picomoles/ml of blood
- kynurenic acid content, Brain (kynurenic acid [2]; [11]): 32 ± 3 picomoles/g of tissue
- kynurenic acid content, Blood (kynurenic acid [2]; [12]): 442 ± 20 picomoles/ml of blood
- kynurenic acid content, Brain (kynurenic acid [2]; [12]): 110 ± 10 picomoles/g of tissue
- kynurenic acid in brain, times higher than the controls (kynurenic acid [2]; 500 mg/Kg): six
- increase in the levels of kynurenic acid in the tissues (in words) (kynurenic acid [2]): dose-dependent
- precursor of cerebral kynurenic acid (in words) [3]: selective precursor of cerebral kynurenic acid
- KYN/TRP × 10^3 [3]: 0.40
- kynurenic acid levels over time in the organs (in words) (kynurenic acid [4]): high increase of kynurenic acid in all the organs under test (maximum in kidney). The levels remain high even after 4 hours from administration
- kynurenic acid level, Brain (kynurenic acid [4]; 1 hour): 39 ± 4 picomoles/g
- kynurenic acid level, Heart (kynurenic acid [4]; 1 hour): 181 ± 18 picomoles/g
- kynurenic acid level, Kidney (kynurenic acid [4]; 1 hour): 2593 ± 250 picomoles/g
- kynurenic acid level, Liver (kynurenic acid [4]; 1 hour): 827 ± 50 picomoles/g
- kynurenic acid level, Brain (kynurenic acid [4]; 2 hours): 32 ± 3 picomoles/g
- kynurenic acid level, Heart (kynurenic acid [4]; 2 hours): 177 ± 20 picomoles/g
- kynurenic acid level, Kidney (kynurenic acid [4]; 2 hours): 2395 ± 200 picomoles/g
- kynurenic acid level, Liver (kynurenic acid [4]; 2 hours): 464 ± 40 picomoles/g
- kynurenic acid level, Brain (kynurenic acid [4]; 3 hours): 38 ± 4 picomoles/g
- kynurenic acid level, Heart (kynurenic acid [4]; 3 hours): 104 ± 12 picomoles/g
- kynurenic acid level, Kidney (kynurenic acid [4]; 3 hours): 1480 ± 150 picomoles/g
- kynurenic acid level, Liver (kynurenic acid [4]; 3 hours): 235 ± 5 picomoles/g
- kynurenic acid level, Brain (kynurenic acid [4]; 4 hours): 28 ± 3 picomoles/g
- kynurenic acid level, Heart (kynurenic acid [4]; 4 hours): 100 ± 11 picomoles/g
- kynurenic acid level, Kidney (kynurenic acid [4]; 4 hours): 1200 ± 150 picomoles/g
- kynurenic acid level, Liver (kynurenic acid [4]; 4 hours): 122 ± 10 picomoles/g
- Animals with convulsions, % ([5]; 200 mg/Kg intravenously): 33%
- Animals with convulsions ([5]; 200 mg/Kg intravenously): 4/12
- protective action against tonic convulsions induced by sound stimulations (in words) [5]: good protective action
- Deaths (NMDA induced convulsions [6]; [13]): 3/9
- Tonic convulsions (NMDA induced convulsions [6]; [13]): 5/9
- protection against convulsions and death induced by NMDA (in words) (NMDA induced convulsions [6]; mouse, in vivo): able to protect mice against both convulsions and death induced by NMDA
- stability (in words) (Stability): highly instable
- kynurenic acid content, Blood (kynurenic acid [7]; 100 mg/Kg per os): 87 ± 8 picomoles/ml of blood
- kynurenic acid content, Brain (kynurenic acid [7]; 100 mg/Kg per os): 28 ± 2 picomoles/g of tissue
- kynurenic acid content, Liver (kynurenic acid [7]; 100 mg/Kg per os): 275 ± 25 picomoles/g of tissue
- kynurenic acid content, Liver (kynurenic acid [7]; 250 mg.Kg i.p.): 547 ± 35 picomoles/g of tissue
- kynurenic acid content, Blood (kynurenic acid [7]; 250 mg/Kg per os): 120 ± 12 picomoles/ml of blood
- kynurenic acid content, Brain (kynurenic acid [7]; 250 mg/Kg per os): 38 ± 3 picomoles/g of tissue
- kynurenic acid content, Liver (kynurenic acid [7]; 250 mg/Kg per os): 485 ± 40 picomoles/g of tissue
- kynurenic acid content, Liver (kynurenic acid [7]; 500 mg.Kg i.p.): 2860 ± 300 picomoles/g of tissue

- Amount of kynurenic acid formed (Brain homogenate; amount not given, 30'): 48 ng
- Amount of kynurenic acid formed (Brain homogenate; amount not given, 60'): 65 ng
- Amount of kynurenic acid formed (Brain homogenate; amount not given, 120'): 83 ng
SMILES: COC(=O)C(=O)Cc1c[nH]c2ccccc12 [IPA-Methylester, 3-indolepyruvic acid methyl ester]

- Amount of kynurenic acid formed (Brain homogenate; amount not given, 30'): 75 ng
- Amount of kynurenic acid formed (Brain homogenate; amount not given, 60'): 82 ng
- Amount of kynurenic acid formed (Brain homogenate; amount not given, 120'): 92 ng
SMILES: COC(=O)C(Cc1ccccc1)NC(=O)C(=O)Cc1c[nH]c2ccccc12 (stereo not shown) [IPE-PHE-Ome, 3indolepyruvic acid phenylalanine methylester]

- Amount of kynurenic acid formed (Brain homogenate; amount not given, 30'): 44 ng
- Amount of kynurenic acid formed (Brain homogenate; amount not given, 60'): 48 ng
- Amount of kynurenic acid formed (Brain homogenate; amount not given, 120'): 79 ng
SMILES: COC(=O)C(Cc1ccc(O)cc1)NC(=O)C(=O)Cc1c[nH]c2ccccc12 (stereo not shown) [IPE-TYR-Ome, 3indolepyruvic acid tyrosine methylester]

SMILES: O=C(O)C(=O)Cc1c[nH]c2ccccc12 [Mg^++ IPA salt, Mg salt of 3-indolepyruvic acid]
- Animals with convulsions, % ([5]; intravenously, dose not given): 29%
- Animals with convulsions ([5]; intravenously, dose not given): 4/14
- solubility in water (in words) (Water solubility): water soluble

SMILES: CN[C@H](CC(=O)O)C(=O)O [NMDA, N-methyl-D-aspartic acid]
- neurotoxic effect (in words) (NMDA induced convulsions [8]; activation of receptors of the excitatory aminoacids): powerful neurotoxic effect

- Amount of kynurenic acid formed (Kidney homogenate; final 1.6 mg, 30'): 55 ng
- Amount of kynurenic acid formed (Kidney homogenate; final 1.6 mg, 60'): 82 ng
- Amount of kynurenic acid formed (Kidney homogenate; final 1.6 mg, 120'): 111 ng
- transformation into kynurenic acid in brain homogenate (in words) (Brain homogenate): never transformed into kynurenic acid
- Amount of kynurenic acid formed (Brain homogenate; 1.6 mg, 30'): 0 ng
- Amount of kynurenic acid formed (Brain homogenate; 1.6 mg, 60'): 0 ng
- Amount of kynurenic acid formed (Brain homogenate; 1.6 mg, 120'): 0 ng
- increase in the levels of kynurenic acid in the tissues (in words) (kynurenic acid [2]): does not produce such an effect
- KYN/TRP × 10^3 [3]: 0.16
SMILES: N[C@@H](Cc1c[nH]c2ccccc12)C(=O)O [Tryptophan, tryptophan, reference compound]
- Animals with convulsions, % ([5]; 200 mg/Kg intravenously): 80%
- Animals with convulsions ([5]; 200 mg/Kg intravenously): 8/10
- protective action against tonic convulsions induced by sound stimulations (in words) [5]: no effective action

SMILES: O=C(O)c1cc(=O)c2ccccc2[nH]1 [kynurenic acid]
- protection against audiogenic convulsions (in words) [9]: protective against convulsions
- protection against the toxicity due to NMDA (in words) (NMDA induced convulsions [8]; well known effect of kynurenic acid): protects against the toxicity due to NMDA
- inhibition of the excitatory effects of quinolinic acid, N-methyl-D-aspartate and other aminoacids (in words) (excitatory aminoacids): powerful inhibitor

SMILES: Nc1ccccc1C(=O)CC(N)C(=O)O (stereo not shown) [kynurenine]
- agonism of excitatory aminoacids (in words) (excitatory aminoacids): powerful agonists of excitatory aminoacids

SMILES: O=C(O)c1cccnc1C(=O)O [quinolinic acid]
- agonism of excitatory aminoacids (in words) (excitatory aminoacids): powerful agonists of excitatory aminoacids
